Measured values reported in patent US20240009172A1, “COMPOSTIONS AND METHODS FOR TREATING PROSTATE CANCER” (The Regents of the University of Michigan, priority 2022, published 2024).

Columns and labels:
[1] = system: CRPC tumor biopsy transcriptome; experiment: RNA-sequencing differential gene expression (DESeq2), progression versus baseline in converters; design: species or system human; details: progression vs baseline samples from the three converters
Experimental: (§1) Methods for tissue collection have been described previously 48.
Core biopsy samples were flash frozen in Optical Cutting Temperature (OCT) for gene expression analysis. Laser capture microdissection was performed on frozen sections to enrich for tumor content 49. Total RNA was isolated (Stratagene Absolutely RNA Nano Prep) (RIN>8) and amplified using NuGEN Ovation RNA seq System V2. Libraries were generated using NuGEN Ovation Ultralow System V2 for Illumina sequencing. RNA seq was performed on the Illumina NextSeq 500, PE75 with at least 100M read pairs. The raw fastq files were first quality checked using FastQC (version 0.11.8) software (http://www.bioinformatics.bbsrc.ac.uk/projects/fastqc/). Fastq files were aligned to hg38 human reference genome and per-gene counts and transcripts per million (TPM) quantified by RSEM 50 (version 1.3.1) based on the gene annotation gencode.v28.annotation.gtf.
Differential expression gene, pathway, and master regulator analysis Differential gene expression analysis was performed using DESeq2 (version 1.22.2). Gene expression differences were considered significant if passing the following criteria: adjusted P-value <0.05, absolute fold change >1.5. For the converter vs non-converter baseline sample comparison, we used the adjusted P-value <0.1. […]

[2] = system: metastatic, castration-resistant prostate cancer; experiment: Enzalutamide treatment of WCDT patients with matched biopsies: PSA response and time on treatment; format: in vivo, human; design: PSA Change at 12 weeks: unit not given here
Experimental: as §1
By examining the Stand Up to Cancer Foundation/Prostate Cancer Foundation West Coast Dream Team (WCDT) prospective cohort, 21 patients with CRPC who underwent a metastatic tumor biopsy prior to enza and a repeat biopsy at the time of progression and whose tumor cells underwent RNA-sequencing after laser capture microdissection were identified. All progression biopsies were performed prior to discontinuing enza, enabling one to identify resistance mechanisms induced by continued enza treatment.
Bone was the most common site for both pre-treatment and progression biopsies. Eighteen of 21 patients had the same tissue type biopsied at progression. In eight patients, the exact same lesion was biopsied at baseline and progression (FIG. 1B, Table 3). The median time on enza treatment was 226 days.

CRPC tumors = experiment: Aggarwal cluster designation and Labrecque classification of progression tumors (lineage plasticity); design: species or system human; details: 3/21 progression tumors (Aggarwal cluster 2, DNPC by Labrecque)
Experimental: The unsupervised analysis from Aggarwal, et al. 25 identified five clusters using 119 samples. That study identified 528 genes that were the most differentially expressed between the clusters. Using that gene list, cluster assignments for new samples included in this matched biopsy cohort were determined without replicating the unsupervised analysis. First, the sample batch effect between the samples from the previous study and those from the current study was addressed with exponential normalization on the expression data of all samples—old and new. Exponential normalization is a per-sample operation that fits the expression of all genes to a unit exponential distribution. […]
To determine the Labrecque classification, a 26 gene signature used previously to define five phenotypic categories of CRPC 24 was applied: AR-high prostate cancer (ARPC), amphicrine prostate cancer, AR-low prostate cancer (ARLPC), double-negative prostate cancer (DNPC), and neuroendocrine prostate cancer (NEPC) 24. […] Samples were assigned to the phenotype groups by clustering using Euclidean distance calculated by the dist function and visualization using classical multidimensional scaling (MDS) calculated with the cmdscale function in R using the log2(TPM+1) transformed expression profiles of the remaining 25 genes.

## CNC(=O)c1ccc(N2C(=S)N(c3ccc(C#N)c(C(F)(F)F)c3)C(=O)C2(C)C)cc1F [enzalutamide]
[1]
  expression of AR, AR target genes (KLK2, KLK3, TMPRSS2) and HOXB13: markedly decreased expression
[2]; 21 patients
  median time on enza treatment: 226 days
[2]; Table 2, n = 21 patients
  Median time on enzalutamide, days (SD): 261 days
[2]; number of patients, n = 21
  50% PSA response to enzalutamide: 7
[2]; patient DTB_024
  PSA Change at 12 weeks: 75.05
[2]; patient DTB_060
  PSA Change at 12 weeks: −20.41
[2]; patient DTB_063
  PSA Change at 12 weeks: −74.64
[2]; patient DTB_073
  PSA Change at 12 weeks: 156.81
[2]; patient DTB_080
  PSA Change at 12 weeks: −28.48
[2]; patient DTB_089
  PSA Change at 12 weeks: 181.18
[2]; patient DTB_098
  PSA Change at 12 weeks: −83.74
[2]; patient DTB_102
  PSA Change at 12 weeks: −93.02
[2]; patient DTB_111
  PSA Change at 12 weeks: 113.99
[2]; patient DTB_127
  PSA Change at 12 weeks: 169.29
[2]; patient DTB_135
  PSA Change at 12 weeks: 164.26
[2]; patient DTB_137
  PSA Change at 12 weeks: −10.85
[2]; patient DTB_141
  PSA Change at 12 weeks: −81.04
[2]; patient DTB_149
  PSA Change at 12 weeks: −80.29
[2]; patient DTB_167
  PSA Change at 12 weeks: −88.38
[2]; patient DTB_176
  PSA Change at 12 weeks: −64.76
[2]; patient DTB_194
  PSA Change at 12 weeks: 100.36
[2]; patient DTB_210
  PSA Change at 12 weeks: −83.36
[2]; patient DTB_232
  PSA Change at 12 weeks: −0.55
[2]; patient DTB_265
  PSA Change at 12 weeks: 5.84
CRPC tumors
  enza-induced lineage plasticity and conversion to an AR-independent program, frequency of tumors: 14%
